In patent US20060142337A1, “Piperidine derivative and use thereof” (priority 2004, published 2006) one finds IC50 data, which are given here for ten molecules.

SMILES strings stand for the structures.

T1 sequence (P25103 whole entry): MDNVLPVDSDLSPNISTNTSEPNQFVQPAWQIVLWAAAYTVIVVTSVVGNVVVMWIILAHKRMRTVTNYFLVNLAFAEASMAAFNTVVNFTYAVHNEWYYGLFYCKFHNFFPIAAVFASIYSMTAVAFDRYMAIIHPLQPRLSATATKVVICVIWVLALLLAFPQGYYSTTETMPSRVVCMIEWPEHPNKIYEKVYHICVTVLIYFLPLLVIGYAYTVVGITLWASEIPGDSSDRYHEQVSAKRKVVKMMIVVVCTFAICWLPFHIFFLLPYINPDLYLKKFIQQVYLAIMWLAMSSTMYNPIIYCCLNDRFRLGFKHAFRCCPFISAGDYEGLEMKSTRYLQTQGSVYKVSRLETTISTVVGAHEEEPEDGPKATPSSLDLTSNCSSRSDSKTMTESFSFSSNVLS

This assay addresses T1, substance P receptor (Homo sapiens, UniProt P25103).
T1 construct: endogenous in cells; host or cells: IM-9 human lymphoblast cells (membrane preparation)
Kind of assay: Radioligand receptor binding inhibitory activity using receptor from human lymphoblast cells (IM-9). The conditions noted are these: [125I]-BHSP binding, receptor from IM-9 cells, 25 C, 30 min. On the procedure:
Radioligand receptor binding inhibitory activity (Binding inhibitory activity using receptor from human lymphoblast cells (IM-9))
The method of M. A. Cascieri et al., “Molecular Pharmacology 42, p. 458 (1992)” was modified and used. The receptor was. prepared from human lymphoblast cells (IM-9). IM-9 cells (2×10^5 cells/mL) were incubated for 3 days (one liter), which was then subjected to centrifuge for 5 min. at 500×G to obtain cell pellets. The obtained pellets were washed once with phosphate buffer (Flow Laboratories, CAT. No. 28-103-05), which were then homogenized using Polytron homogenizer (“Kinematika”, Germany) in 30 mL of 50 mM Tris-HCl buffer (pH 7.4) containing 120 mM sodium chloride, 5 mM potassium chloride, 2 μg/mL chymostatin, 40 μg/mL bacitracin, 5 μg/mL phosphoramidon, 0.5 mM phenylmethylsulfonyl fluoride, 1 mM ethylenediamine tetra-acetate, which was subjected to centrifuge at 40,000×G for 20 min. The residue was washed twice with 30 mL of the buffer, which was then preserved frozen (−80° C.) as a specimen of the receptor.
The specimen was suspended in a reaction buffer (50 mM Tris-HCl buffer (pH 7.4), 0.02% bovine serum albumin, 1 mM phenylmethylsulfonyl fluoride, 2 μg/mL chymostatin, 40 μg/mL bacitracin and 3 mM manganese chloride) to have protein in the concentration of 0.5 mg/mL of protein and 100 μL portion of the suspension was used in the reaction. After addition of the sample and ^125]-BHSP (0.46 KBq), the reaction was allowed to proceed in 0.2 mL of reaction buffer at […] for 30 min. The amount of nonspecific binding was determined by adding substance P at a final concentration of 2×10^−6 M.
After the reaction, using a cell harvester (290 PHD, Cambridge Technology, Inc, U.S.A.), filtration was carried out through a glass filter (GF/B, Whatman, U.S.A.), which was immersed in 0.1% polyethyleneimine for 24 hrs. and dried. After washing three times with 250 μL of 50 mM Tris-HCl buffer (pH 7.4) containing 0.02% bovine serum albumin, the radioactivity remaining on the filter was. determined with a gamma counter.
The antagonistic activity of each compound obtained in Examples was determined in terms of the concentration necessary to cause 50% inhibition (IC50 value) under the above-described conditions, and the results were shown in Table 14.
The radio ligand means substance P labeled with [^125I].
The term IC50 denotes the midpoint of a concentration-inhibition curve. Read a high IC50 as lower potency. For `CCNC(=O)[C@H]1CC[C@H](C(=O)N2CC[C@H](O[C@H](C)c3cc(C(F)(F)F)cc(C(F)(F)F)c3)[C@H](c3ccccc3)C2)CC1` [Example 69, trans-4-[[(3R,4S)-4-[(1R)-1-[3,5-Bis(trifluoromethyl)phenyl]ethoxy]-3-phenylpiperidin-1-yl]carbonyl]-N-ethylcyclohexanecarboxamide], the IC50 was 0.099 nM. Consider `CC(=O)N1CCC(NC(=O)N2CC[C@H](O[C@H](C)c3cc(C(F)(F)F)cc(C(F)(F)F)c3)[C@H](c3ccccc3)C2)CC1` [Example 71, (3R,4S)-N-(1-acetylpiperidin-4-yl)-4-[(1R)-1-[3,5-bis(trifluoromethyl)phenyl]ethoxy]-3-phenylpiperidine-1-carboxamide], for which the half-inhibitory concentration (IC50) came to 0.094 nM. This IC50 and that of the molecule before are within 1.5-fold of each other. The molecule `CCC(=O)N1CCC(NC(=O)N2CC[C@H](O[C@H](C)c3cc(C(F)(F)F)cc(C(F)(F)F)c3)[C@H](c3ccccc3)C2)CC1` [Example 72, (3R,4S)-4-[(1R)-1-[3,5-Bis(trifluoromethyl)phenyl]ethoxy]-3-phenyl-N-(1-propionylpiperidin-4-yl)piperidine-1-carboxamide] had an IC50 of 0.091 nM.

`CC(=O)NC1CCN(C(=O)N2CC[C@H](O[C@H](C)c3cc(C(F)(F)F)cc(C(F)(F)F)c3)[C@H](c3ccccc3)C2)CC1` [Example 73, N-[1-[[(3R,4S)-4-[(1R)-1-[3,5-bis(trifluoromethyl)phenyl]ethoxy]-3-phenylpiperidin-1-yl]carbonyl]piperidin-4-yl]acetamide] gave an IC50 of 0.097 nM. `CCC(=O)NC1CCN(C(=O)N2CC[C@H](O[C@H](C)c3cc(C(F)(F)F)cc(C(F)(F)F)c3)[C@H](c3ccccc3)C2)CC1` [Example 74, N-[1-[[(3R,4S)-4-[(1R)-1-[3,5-bis(trifluoromethyl)phenyl]ethoxy]-3-phenylpiperidin-1-yl]carbonyl]piperidin-4-yl]propanamide] had a concentration for half-maximal inhibition (IC50) of 0.087 nM.

For the molecule `C[C@@H](O[C@H]1CCN(C(=O)C2CC(=O)NC(=O)C2)C[C@H]1c1ccccc1)c1cc(C(F)(F)F)cc(C(F)(F)F)c1` [Example 76, 4-[[(3R,4S)-4-[(1R)-1-[3,5-Bis(trifluoromethyl)phenyl]ethoxy]-3-phenylpiperidin-1-yl]carbonyl]piperidine-2,6-dione], the half-maximal inhibitory concentration (IC50) was determined as 0.084 nM.

`C[C@@H](O[C@H]1CCN(C(=O)C2CC(=O)N(C)C(=O)C2)C[C@H]1c1ccccc1)c1cc(C(F)(F)F)cc(C(F)(F)F)c1` [Example 77, 4-[[(3R,4S)-4-[(1R)-1-[3,5-Bis(trifluoromethyl)phenyl]ethoxy]-3-phenylpiperidin-1-yl]carbonyl]-1-methylpiperidine-2,6-dione] came in with an IC50 of 0.062 nM. The IC50 values of the last two molecules are within 1.5-fold of each other. The same measure for `C[C@@H](O[C@H]1CCN(C(=O)CC2NC(=O)NC2=O)C[C@H]1c1ccccc1)c1cc(C(F)(F)F)cc(C(F)(F)F)c1` (stereo partly drawn) [Example 78, 5-[2-[(3R,4S)-4-[(1R)-1-[3,5-Bis(trifluoromethyl)phenyl]ethoxy]-3-phenylpiperidin-1-yl]-2-oxoethyl]imidazolidine-2,4-dione]: 0.096 nM. The same measure for `C[C@@H](O[C@H]1CCN(C(=O)C2CCN(C(=O)Cn3cncn3)CC2)C[C@H]1c1ccccc1)c1cc(C(F)(F)F)cc(C(F)(F)F)c1` [Example 119, (3R,4S)-4-{(1R)-1-[3,5-Bis(trifluoromethyl)phenyl]ethoxy}-3-phenyl-1-([1-(1H-1,2,4-triazol-1-ylacetyl)piperidin-4-yl]carbonyl}piperidine]: 0.02 nM; for `C[C@@H](O[C@H]1CCN(C(=O)C2CCN(C(=O)Cn3cccn3)CC2)C[C@H]1c1ccccc1)c1cc(C(F)(F)F)cc(C(F)(F)F)c1` [Example 122, (3R,4S)-4-{(1R)-1-[3,5-Bis(trifluoromethyl)phenyl]ethoxy}-3-phenyl-1-{[1-(1H-pyrazol-1-ylacetyl)piperidin-4-yl]carbonyl}piperidine]: 0.021 nM.
